Publication PMC5778160, “Functional genomics analysis reveals the biosynthesis pathways of important cellular components (alginate and fucoidan) of Saccharina” (Current Genetics, 2017)

Columns and labels:
[1] = test system: T1, EsiGMD3; test: enzyme kinetics (GDP-mannose dehydrogenase activity); format: biochemical, Ectocarpus siliculosus; settings: read-out: NAD / k m; co-substrate GDP-mannose; optimum pH 8.75, 30–37 °C; unit as in table header, probably a misprint for μM; heading: NAD / k m
T1 construct: gene GMD3; synthesized gene, pET32a, E. coli BL21(DE3), His-resin purified
From the text: enzyme kinetics (GDP-mannose dehydrogenase activity) on EsiGMD3

[2] = test system: T2, EsiGMD2; test: as above; format: biochemical, Ectocarpus siliculosus; settings: read-out: NAD / k m; co-substrate GDP-mannose; optimum pH 8.75–9, 30–37 °C; unit as in table header, probably a misprint for μM; heading: NAD / k m
T2 construct: gene GMD2; synthesized gene, pET32a, E. coli BL21(DE3), His-resin purified
From the text: enzyme kinetics (GDP-mannose dehydrogenase activity) on EsiGMD2

[3] = substrate: O=P(O)(O)O[C@H]1O[C@H](CO)[C@@H](O)[C@H](O)[C@H]1O; test: enzyme kinetics, double reciprocal plot (phosphoglucomutase activity); format: biochemical, Saccharina japonica; settings: optimum pH 7.0, 30 °C
[4] = substrate: O=P(O)(O)O[C@H]1O[C@H](CO)[C@@H](O)[C@H](O)[C@@H]1O; test: enzyme kinetics, double reciprocal plot (phosphomannomutase activity); format: biochemical, Saccharina japonica; settings: optimum pH 7.4, 25 °C

Molecule | Km [1] [µM] | Km [2] [µM] | Km [3] [µM] | Km [4] [µM]
NC(=O)c1ccc[n+]([C@@H]2O[C@H](COP(=O)(O)OP(=O)(O)OC[C@H]3O[C@@H](n4cnc5c(N)ncnc54)[C@H](O)[C@@H]3O)[C@@H](O)[C@H]2O)c1 [NAD] | 43.5 | 79.6 |  | 
SjaPMM (Saccharina japonica) (protein, synthesized gene, pET32a, E. coli BL21(DE3), His-resin purified) MSVTKNPRIIALFDVDGTLTAARKEVLPDMVEFIKTLRERITIGVVGGSDLPKQKEQLGESVMEDYDYSFSQNGLVAYKAGELIGQQTISKHVGEENLKKIINWVLKYMSGIDIPVKRGTFIEFRTGMLNISPVGRNCSQEERDAFEQYDNVHKIRETMVAAMREEFADLNLTFSIGGQISFDLFPTGWDKTFCLQFLGEGTAEYDEIHFFGDKTFKGGNDNEIFESERTIGHTVTSPADTIQQCKELFFKD |  |  | 41.04 | 699.41
